Measured values reported in EPA's ToxValDB 9.5.
Several values for one entry are separate records, joined by “and”; a condition that tells them apart may be missing. Identical values can stand only once.

What was measured:
Mus musculus = settings: oral, drinking water
Rattus norvegicus = settings: oral
[1] = short-term, duration: 28 days, M, BALB/c, activity cage (locomotion events, 60 min) + Morris water maze (escape time, acquisition, day 5) + Morris water maze (platform crossing, …
[2] = short-term, duration: 28 days, M, BALB/c, elevated plus maze (time in open arms) + forced swim (immobility time, last 4 min) + forced swim (immobility time, total 6 min)
[3] = subchronic, duration: 8 weeks, M, Kunming, Y-maze (number of training runs to meet 90% learning standard)
[4] = subchronic, duration: 8 weeks, M, Kunming, open field (grid entry, 3 minutes)
[5] = subchronic, duration: 10 weeks, ICR, Y-maze (number of training runs to meet 90% learning standard)
[6] = subchronic, duration: 30 days, F, Swiss Albino, rotarod (latency to fall, 25 rpm)
[7] = subchronic, duration: 64 days, M, C57BL/6, formalin test (flinches, early phase, 10 min) + formalin test (flinches, late phase, 60 min) + formalin test (flinches/10 min, 60 min) + …
[8] = chronic, duration: 6 months, drinking water, M/F, Sprague-Dawley, Morris water maze (escape time, acquisition, day 6)
[9] = chronic, duration: 6 months, drinking water, M, Wistar, open field (entries to neighboring grids, day 1) + Y-maze (correct responses, day 9)
[10] = chronic, duration: 6 months, drinking water, M, Wistar, open field (standing attempts, day 1) + open field (standing attempts, day 9) + open field (time in central grid, day 1) + Y-maze (correct …
[11] = developmental, drinking water, M/F, Wistar, generation: F1, F1: active avoidance (shuttle box, conditioned avoidance response, day 2)
[12] = developmental, drinking water, M/F, Wistar, generation: F1, F1: maze test (latency to complete, day 1) + F1: maze test (latency to complete, day 5) + F1: maze test (number entries into blind alleys, …

`[F-].[Na+]` [Sodium fluoride] was tested, and the NOEL (Mus musculus; developmental, M, Kunming, generation: F1, F1: activity chamber (ambulation events) + F1: activity chamber (rearing events) + F1: novel object test (adaptation phase memory index) + …) was 18.4 mg/kg-day, the LOEL (Mus musculus; developmental, M, NMRI, generation: F1, F1: maze test (completion time, assessment 1) + F1: maze test (completion time, assessment 2)) was 0.113 mg/day and the NOEL (Mus musculus; short-term, duration: 28 days, M, BALB/c, activity cage (locomotion events, 10 min) + activity cage (rearing events, 10 min) + activity cage (rearing events, 60 min) + elevated plus …) was 1.16 mg/kg-day. The LOEL (Mus musculus; [1]) was 0.58 mg/kg-day, the NOEL (Mus musculus; [1]) was 0.23 mg/kg-day and the LOEL (Mus musculus; [2]) was 1.16 mg/kg-day. The NOEL (Mus musculus; [2]) was 0.58 mg/kg-day, the NOEL (Mus musculus; subchronic, duration: 8 weeks, M, Kunming, Y-maze (% of correct responses 24 hrs after mastering learning standard)) was 1.16 mg/kg-day and the LOEL (Mus musculus; [3]) was 0.58 mg/kg-day and 0.7 mg/kg-day. The NOEL (Mus musculus; [3]) was 0.12 mg/kg-day and 0.35 mg/kg-day, the NOEL (Mus musculus; subchronic, duration: 8 weeks, M, Kunming, open field (grid entry, 1 minute) + open field (rearing events) + open field (standing against wall events) + Y-maze (percent correct …) was 1.39 mg/kg-day and the LOEL (Mus musculus; [4]) was 1.39 mg/kg-day. The NOEL (Mus musculus; [4]) was 0.7 mg/kg-day, the NOEL (Mus musculus; subchronic, duration: 10 weeks, ICR, Y-maze (% of correct responses 24 hrs after mastering learning standard)) was 1.19 mg/kg-day and the LOEL (Mus musculus; [5]) was 1.19 mg/kg-day. It also gave an NOEL (Mus musculus; [5]) of 0.59 mg/kg-day, an NOEL (Mus musculus; subchronic, duration: 30 days, F, Swiss Albino, elevated plus maze (time to move from open to closed arm, trial 1) + open field (fecal matter) + open field (grooming time) + open field (…) of 24.5 mg/kg-day and an LOEL (Mus musculus; subchronic, duration: 30 days, F, Swiss Albino, elevated plus maze (time to move from open to closed arm, trial 2) + forced swim (immobility time) + motor coordination (akinesia, latency …) of 12.3 mg/kg-day. For the same compound, the LOEL (Mus musculus; subchronic, duration: 30 days, F, Swiss Albino, maze test (latency) + motor coordination (akinesia, latency time) + motor coordination (catalepsy, latency time) + swim test (total swim …) was 14.7 mg/kg-day, the LOEL (Mus musculus; [6]) was 24.5 mg/kg-day and the NOEL (Mus musculus; [6]) was 12.3 mg/kg-day. For the same compound, the LOEL (Mus musculus; subchronic, duration: 64 days, M, C57BL/6, Von Frey hairs test (relative frequency of paw withdrawal)) was 5.79 mg/kg-day, the LOEL (Mus musculus; [7]) was 11.6 mg/kg-day and the NOEL (Mus musculus; [7]) was 5.79 mg/kg-day. It also gave an NOEL (Mus musculus; subchronic, duration: 64 days, M, C57BL/6, formalin test (licking time, late phase, 60 min) + formalin test (licking time/10 min, 60 min) + open field (total distance moved, 1 hr) + …) of 11.6 mg/kg-day, an LOEL (Rattus norvegicus; chronic, duration: 5 months, drinking water, Sprague-Dawley, Y-maze (number of correct responses over 10 trainings after 24 hours) + Y-maze (number of training runs to meet learning standard 90%)) of 9.8 mg/kg-day and an LOEL (Rattus norvegicus; chronic, duration: 5 months, drinking water, Wistar, Y-maze (number of training runs to achieve 9 consecutive correct responses)) of 6.91 mg/kg-day. The NOEL (Rattus norvegicus; chronic, duration: 6 months, drinking water, M/F, Sprague-Dawley, Morris water maze (escape time, acquisition, day 1)) was 3.28 mg/kg-day and 3.27 mg/kg-day, the LOEL (Rattus norvegicus; [8]) was 3.27 mg/kg-day and the NOEL (Rattus norvegicus; [8]) was 0.33 mg/kg-day. The LOEL (Rattus norvegicus; chronic, duration: 6 months, drinking water, M/F, Sprague-Dawley, Morris water maze (escape time, acquisition, day 6) + Morris water maze (escape time, probe test, day 7)) was 0.33 mg/kg-day, the LOEL (Rattus norvegicus; chronic, duration: 6 months, drinking water, M/F, Sprague-Dawley, Morris water maze (escape time, acquisition, day 6) + Morris water maze (time in platform area, probe test, day 7) + Morris water maze (time…) was 0.33 mg/kg-day and the NOEL (Rattus norvegicus; chronic, duration: 6 months, drinking water, M/F, Sprague-Dawley, Morris water maze (platform crossing, probe test, day 7)) was 3.27 mg/kg-day. It also gave an LOEL (Rattus norvegicus; chronic, duration: 6 months, drinking water, M/F, Sprague-Dawley, Morris water maze (time in platform area, probe test, day 7)) of 0.33 mg/kg-day, an LOEL (Rattus norvegicus; chronic, duration: 6 months, drinking water, M, Wistar, Y-maze (time to meet learning standard 90%)) of 3.34 mg/kg-day and an LOEL (Rattus norvegicus; [9]) of 10 mg/kg-day. For the same compound, the NOEL (Rattus norvegicus; [9]) was 6.67 mg/kg-day, the NOEL (Rattus norvegicus; chronic, duration: 6 months, drinking water, M, Wistar, open field (entries to neighboring grids, day 9) + open field (time in central grid, day 9)) was 10 mg/kg-day and the LOEL (Rattus norvegicus; [10]) was 6.67 mg/kg-day. For the same compound, the NOEL (Rattus norvegicus; [10]) was 3.34 mg/kg-day, the LOEL (Rattus norvegicus; chronic, duration: 10 months, drinking water, M/F, Sprague-Dawley, Morris water maze (escape time, acquisition, average over days 1-6) + Morris water maze (platform crossing, probe test, day 7)) was 2.16 mg/L urine and the LOEL (Rattus norvegicus; chronic, duration: 14 weeks, drinking water, M, Wistar, sexual behavior (ejaculation frequency) + sexual behavior (ejaculation latency) + sexual behavior (intromission latency) + sexual behavior (…) was 6.67 mg/kg-day. It also gave an NOEL (Rattus norvegicus; chronic, duration: 115 days, drinking water, M, Wistar, open field (squares crossed)) of 6.67 mg/kg-day, an LOEL (Rattus norvegicus; chronic, duration: 115 days, drinking water, M, Wistar, plank walking (narrow, distance traveled) + plank walking (narrow, number of turns) + plank walking (wide, distance traveled) + plank …) of 6.67 mg/kg-day and an LOEL (Rattus norvegicus; developmental, diet, M/F, Sprague-Dawley, generation: F1, F1: Morris water maze (escape time, acquisition, day 6) + F1: Morris water maze (platform crossing, probe test, day 7) + F1: Morris water …) of 8.52 mg/L urine. For the same compound, the NOEL (Rattus norvegicus; developmental, drinking water, F, Wistar, generation: F1, F1: cliff avoidance + F1: ear opening + F1: negative geotaxis + F1: surface righting) was 0.54 mg/kg-day, the LOEL (Rattus norvegicus; developmental, drinking water, F, Wistar, generation: F1, F1: elevated plus maze (open arm entries) + F1: elevated plus maze (time in open arms) + F1: open field (grooming events) + F1: open field (…) was 0.27 mg/kg-day and the NOEL (Rattus norvegicus; developmental, drinking water, F, Wistar, generation: F1, F1: elevated plus maze (open arm entries) + F1: open field (defecation) + F1: open field (grooming events) + F1: open field (rearing events…) was 0.54 mg/kg-day. It also gave an LOEL (Rattus norvegicus; developmental, drinking water, F, Wistar, generation: F1, F1: elevated plus maze (time in open arms)) of 0.27 mg/kg-day, an LOEL (Rattus norvegicus; developmental, drinking water, F, Wistar, generation: F1, F1: eye opening) of 0.27 mg/kg-day and an NOEL (Rattus norvegicus; developmental, drinking water, F, Wistar, generation: F1, F1: open field (defecation) + F1: open field (rearing events, 15 min)) of 0.54 mg/kg-day. For the same compound, the LOEL (Rattus norvegicus; developmental, drinking water, M/F, Sprague-Dawley, generation: F1, F1: Morris water maze (distance traveled to reach platform, acquisition, day 4) + F1: Morris water maze (latency to reach platform, …) was 1.63 mg/kg-day, the LOEL (Rattus norvegicus; developmental, drinking water, M/F, Sprague-Dawley, generation: F1, F1: Morris water maze (escape time, acquisition, average over days 1-6) + F1: Morris water maze (platform crossing, probe test, day 7) + F1…) was 3.27 mg/kg-day and the NOEL (Rattus norvegicus; developmental, drinking water, M/F, Sprague-Dawley, generation: F1, F1: Morris water maze (swim speed to reach platform, acquisition, day 4)) was 6.53 mg/kg-day. The LOEL (Rattus norvegicus; [11]) was 4.35 mg/kg-day, the NOEL (Rattus norvegicus; [11]) was 2.18 mg/kg-day and the LOEL (Rattus norvegicus; developmental, drinking water, M/F, Wistar, generation: F1, F1: active avoidance (shuttle box, conditioned avoidance response, day 9) + F1: pain response (hot plate, latency period)) was 2.18 mg/kg-day. For the same compound, the LOEL (Rattus norvegicus; developmental, drinking water, M/F, Wistar, generation: F1, F1: elevated plus maze (open arm entries) + F1: elevated plus maze (time in open arms) + F1: mid-air righting (number of animals successful…) was 9.05 mg/kg-day, the LOEL (Rattus norvegicus; [12]) was 4.87 mg/kg-day and the NOEL (Rattus norvegicus; [12]) was 2.33 mg/kg-day.
